Results: paper PMC11099041, “Tissue distribution and retention drives efficacy of rapidly clearing VHL-based PROTACs” (Communications Medicine, 2024)
Several values for one entry are separate records, joined by “and”; a condition that tells them apart may be missing. Equal entries are not always repeated. Where two headings read alike, the source gives them in different places.

Assay: Mouse pharmacokinetics in CD-1 mice (blood, kidney, liver, lung)
Assay type: in vivo
Protocol: For the PK study, a total of 42 male CD-1 mice weighing ~20-35 g were acquired from Lingchang/Vital River Laboratory Animal Co., Ltd. (Shanghai/Beijing, P.R. China) and divided into 2 treatment groups. […] was dosed with one low dose (1 mg/kg) and one high dose group (20 mg/kg). For the low-dose groups, nine animals were required for organ quantification with termination at 24 hours. For the high-dose groups, 12 animals were required for organ quantification with termination at 48 hours. The animal was administered either 1 mg/kg or 20 mg/kg of formulation solution (10% HP-β-CD in acetate buffer at pH 4.0) by IV bolus through the left lateral tail vein injection. […] Blood samples were placed on wet ice, mixed, then frozen and stored in a freezer set to -60 °C or lower until analysis. After the blood samples were collected at the terminal time points, the animals were sacrificed, and the liver, lung and kidney were harvested. The tissues were rinsed in cold water and then blotted on filter papers, weighed and homogenized using pre-cooled water at the ratio of 1:4. The tissue homogenate samples were kept at -70 °C until analysis. […] Working standard solutions were spiked into 25 μL of blank matrix on the sample plate. […] The supernatant (20 μL) was transferred into the MS injection plate, then diluted with water before injection for LC-MS/MS analysis. The concentrations of […] were quantified by an LC-MS/MS method. The LC-MS/MS system was a Waters Acquity UPLC System (Milford, MA) coupled to a Sciex Triple Quad 6500 Plus mass spectrometer (AB Sciex, Foster City, CA). The aqueous mobile phase for the analysis was 0.1% formic acid and 2 mM ammonium formate in water/ACN (v:v, 95:5) (A), and the organic mobile phase was 0.1% formic acid and 2 mM ammonium formate in ACN/water (v:v, 95:5) (B). […] Column temperature was set at 50 °C. […] The flow rate was set at 0.7 mL/min. […] The lower limit of quantitation in all matrices was 5.1 ng/mL. The mean time concentration profile was generated for each group, and an overall AUC was then calculated with these sparse samples of rats and mice. […] The following parameters were estimated whenever possible: C0, Back-extrapolated concentration at time 0; Cmax, Maximum observed concentration; Tmax, Time of maximum observed concentration; AUC0-t, Area under the concentration-time curve from hour 0 to the last measurable concentration, estimated by the linear trapezoidal rule; AUC0-336, Area under the concentration-time curve from hour 0 to hour 336, estimated by the linear trapezoidal rule; DN AUC0-336, Dose normalized AUC0-336, calculated as AUC0-336/dose level; […] AUC0-∞ = AUC0-t + Ct/λz, where Ct is the last measurable concentration and λz is the elimination rate constant; t1/2, Elimination half-life, determined by ln(2)/λz; CL, Clearance, calculated as dose/AUC0-inf; Vd, Volume of distribution based on the terminal phase, calculated as: dose/(λz × AUC0-∞) Nominal doses and sampling times were used. […] Embedded zeros were excluded from kinetic analysis.

Cc1ncsc1-c1ccc(C(C)NC(=O)C2CC(O)CN2C(=O)C(c2cc(N3CCC(CN4CCC(OC5CC(Oc6cc(N7C8CCC7CN(c7cc(-c9ccccc9O)nnc7N)C8)ccn6)C5)CC4)CC3)no2)C(C)C)cc1 (stereo not shown) [A947]
concentration at 0.083 h (Blood, 0.083 h, 1 mg/kg IV, individual animals, read-out: Concentration (µM) from 1 mg/kg Dosing Blood): 0.351 µM and 0.406 µM
concentration at 8 h (Blood, 0.083 h, 20 mg/kg IV, individual animals, read-out: Concentration (µM) from 20 mg/kg Dosing Blood): 11.332 µM and 8.845 µM
concentration at 0.083 h (Blood, 0.25 h, 1 mg/kg IV, individual animals, read-out: Concentration (µM) from 1 mg/kg Dosing Blood): 0.084 µM and 0.113 µM
concentration at 8 h (Blood, 0.25 h, 20 mg/kg IV, individual animals, read-out: Concentration (µM) from 20 mg/kg Dosing Blood): 3.265 µM and 3.4 µM
concentration at 0.083 h (Blood, 0.5 h, 1 mg/kg IV, individual animals, read-out: Concentration (µM) from 1 mg/kg Dosing Blood): 0.044 µM and 0.066 µM
concentration at 8 h (Blood, 0.5 h, 20 mg/kg IV, individual animals, read-out: Concentration (µM) from 20 mg/kg Dosing Blood): 1.604 µM and 1.652 µM
concentration at 0.083 h (Blood, 1 h, 1 mg/kg IV, individual animals, read-out: Concentration (µM) from 1 mg/kg Dosing Blood): 0.02 µM and 0.026 µM
concentration at 8 h (Blood, 1 h, 20 mg/kg IV, individual animals, read-out: Concentration (µM) from 20 mg/kg Dosing Blood): 0.769 µM and 0.821 µM
concentration at 0.083 h (Blood, 2 h, 1 mg/kg IV, individual animals, read-out: Concentration (µM) from 1 mg/kg Dosing Blood): 0.009 µM and 0.013 µM
concentration at 8 h (Blood, 2 h, 20 mg/kg IV, individual animals, read-out: Concentration (µM) from 20 mg/kg Dosing Blood): 0.221 µM and 0.24 µM
Concentration (µM) from 1 mg/kg Dosing Blood (Blood, 4 h, 1 mg/kg IV, individual animals, BLOQ <5.1 ng/mL): BLOQ *
concentration at 0.083 h (Blood, 4 h, 1 mg/kg IV, individual animals, BLOQ <5.1 ng/mL, read-out: Concentration (µM) from 1 mg/kg Dosing Blood): 0.006 µM
concentration at 8 h (Blood, 4 h, 20 mg/kg IV, individual animals, read-out: Concentration (µM) from 20 mg/kg Dosing Blood): 0.212 µM and 0.306 µM and 0.093 µM and 0.117 µM and 0.098 µM and 0.1 µM
Concentration (µM) from 1 mg/kg Dosing Blood (Blood, 8 h, 1 mg/kg IV, individual animals, BLOQ <5.1 ng/mL): BLOQ *
concentration at 8 h (Blood, 8 h, 20 mg/kg IV, individual animals, read-out: Concentration (µM) from 20 mg/kg Dosing Blood): 0.067 µM and 0.056 µM and 0.036 µM and 0.037 µM
Concentration (µM) from 1 mg/kg Dosing Blood (Blood, 12 h, 1 mg/kg IV, individual animals, BLOQ <5.1 ng/mL): BLOQ *
concentration at 8 h (Blood, 12 h, 20 mg/kg IV, individual animals, read-out: Concentration (µM) from 20 mg/kg Dosing Blood): 0.015 µM and 0.017 µM
Concentration (µM) from 1 mg/kg Dosing Blood (Blood, 24 h, 1 mg/kg IV, individual animals, BLOQ <5.1 ng/mL): BLOQ *
Concentration (µM) from 20 mg/kg Dosing Blood (Blood, 24 h, 20 mg/kg IV, individual animals, BLOQ <5.1 ng/mL): BLOQ *
Concentration (µM) from 20 mg/kg Dosing Blood (Blood, 48 h, 20 mg/kg IV, individual animals, BLOQ <5.1 ng/mL): BLOQ *
concentration at 24 h (Kidney, 4 h, 1 mg/kg IV, individual animals, read-out: Concentration (µM) from 1 mg/kg Dosing Kidney): 0.541 µM and 0.391 µM
concentration at 8 h (Kidney, 4 h, 20 mg/kg IV, individual animals, read-out: Concentration (µM) from 20 mg/kg Dosing Kidney): 14.213 µM and 10.852 µM
concentration at 24 h (Kidney, 8 h, 1 mg/kg IV, individual animals, read-out: Concentration (µM) from 1 mg/kg Dosing Kidney): 0.341 µM and 0.338 µM
concentration at 8 h (Kidney, 8 h, 20 mg/kg IV, individual animals, read-out: Concentration (µM) from 20 mg/kg Dosing Kidney): 11.428 µM and 7.712 µM
concentration at 24 h (Kidney, 24 h, 1 mg/kg IV, individual animals, read-out: Concentration (µM) from 1 mg/kg Dosing Kidney): 0.025 µM and 0.027 µM
concentration at 8 h (Kidney, 24 h, 20 mg/kg IV, individual animals, read-out: Concentration (µM) from 20 mg/kg Dosing Kidney): 0.295 µM and 0.508 µM
concentration at 8 h (Kidney, 48 h, 20 mg/kg IV, individual animals, read-out: Concentration (µM) from 20 mg/kg Dosing Kidney): 0.083 µM and 0.066 µM
concentration at 24 h (Liver, 4 h, 1 mg/kg IV, individual animals, read-out: Concentration (µM) from 1 mg/kg Dosing Liver): 0.069 µM and 0.098 µM
concentration at 8 h (Liver, 4 h, 20 mg/kg IV, individual animals, read-out: Concentration (µM) from 20 mg/kg Dosing Liver): 66.456 µM and 51.09 µM and 27.754 µM
concentration at 24 h (Liver, 8 h, 1 mg/kg IV, individual animals, read-out: Concentration (µM) from 1 mg/kg Dosing Liver): 0.039 µM
concentration at 8 h (Liver, 8 h, 20 mg/kg IV, individual animals, read-out: Concentration (µM) from 20 mg/kg Dosing Liver): 18.535 µM and 24.009 µM
Concentration (µM) from 1 mg/kg Dosing Liver (Liver, 24 h, 1 mg/kg IV, individual animals, BLOQ <5.1 ng/mL): BLOQ *
concentration at 8 h (Liver, 24 h, 20 mg/kg IV, individual animals, read-out: Concentration (µM) from 20 mg/kg Dosing Liver): 8.297 µM and 9.7 µM
concentration at 8 h (Liver, 48 h, 20 mg/kg IV, individual animals, read-out: Concentration (µM) from 20 mg/kg Dosing Liver): 1.133 µM and 2.43 µM and 2.132 µM
concentration at 24 h (Lung, 4 h, 1 mg/kg IV, individual animals, read-out: Concentration (µM) from 1 mg/kg Dosing Lung): 0.085 µM and 0.099 µM
concentration at 8 h (Lung, 4 h, 20 mg/kg IV, individual animals, read-out: Concentration (µM) from 20 mg/kg Dosing Lung): 6.463 µM and 5.695 µM
concentration at 24 h (Lung, 8 h, 1 mg/kg IV, individual animals, read-out: Concentration (µM) from 1 mg/kg Dosing Lung): 0.066 µM and 0.071 µM
concentration at 8 h (Lung, 8 h, 20 mg/kg IV, individual animals, read-out: Concentration (µM) from 20 mg/kg Dosing Lung): 2.286 µM and 3.054 µM
concentration at 24 h (Lung, 24 h, 1 mg/kg IV, individual animals, read-out: Concentration (µM) from 1 mg/kg Dosing Lung): 0.011 µM and 0.016 µM
concentration at 8 h (Lung, 24 h, 20 mg/kg IV, individual animals, read-out: Concentration (µM) from 20 mg/kg Dosing Lung): 0.718 µM and 0.295 µM and 0.794 µM
concentration at 8 h (Lung, 48 h, 20 mg/kg IV, individual animals, read-out: Concentration (µM) from 20 mg/kg Dosing Lung): 0.36 µM and 0.211 µM and 1.402 µM
half-life (male, CD-1, mouse, blood and tissues (kidney, liver, lung), iv, CD-1 mice IV, dose = c0, matrix = c1 of the line): 600 to 900 min
concentration at 0.25 h (male, CD-1, mouse, blood, intravenous, 1 mg/kg, Blood, 0.25 h, 1 mg/kg IV, individual animals, read-out: Concentration (µM) from 1 mg/kg Dosing Blood): 0.089 µM
concentration at 0.25 h (male, CD-1, mouse, blood, intravenous, 1 mg/kg, Blood, 0.25 h, 1 mg/kg IV, mean, read-out: Concentration (µM) from 1 mg/kg Dosing Blood): 0.095 µM
concentration at 0.5 h (male, CD-1, mouse, blood, intravenous, 1 mg/kg, Blood, 0.5 h, 1 mg/kg IV, individual animals, read-out: Concentration (µM) from 1 mg/kg Dosing Blood): 0.055 µM
concentration at 0.5 h (male, CD-1, mouse, blood, intravenous, 1 mg/kg, Blood, 0.5 h, 1 mg/kg IV, mean, read-out: Concentration (µM) from 1 mg/kg Dosing Blood): 0.055 µM
concentration at 1 h (male, CD-1, mouse, blood, intravenous, 1 mg/kg, Blood, 1 h, 1 mg/kg IV, individual animals, read-out: Concentration (µM) from 1 mg/kg Dosing Blood): 0.027 µM
concentration at 1 h (male, CD-1, mouse, blood, intravenous, 1 mg/kg, Blood, 1 h, 1 mg/kg IV, mean, read-out: Concentration (µM) from 1 mg/kg Dosing Blood): 0.024 µM
concentration at 2 h (male, CD-1, mouse, blood, intravenous, 1 mg/kg, Blood, 2 h, 1 mg/kg IV, individual animals, read-out: Concentration (µM) from 1 mg/kg Dosing Blood): 0.012 µM
concentration at 2 h (male, CD-1, mouse, blood, intravenous, 1 mg/kg, Blood, 2 h, 1 mg/kg IV, mean, read-out: Concentration (µM) from 1 mg/kg Dosing Blood): 0.011 µM
concentration at 12 h (male, CD-1, mouse, blood, intravenous, 20 mg/kg, Blood, 12 h, 20 mg/kg IV, individual animals, read-out: Concentration (µM) from 20 mg/kg Dosing Blood): 0.019 µM
concentration at 12 h (male, CD-1, mouse, blood, intravenous, 20 mg/kg, Blood, 12 h, 20 mg/kg IV, mean, read-out: Concentration (µM) from 20 mg/kg Dosing Blood): 0.017 µM
concentration at 24 h (male, CD-1, mouse, blood, intravenous, 20 mg/kg, Blood, 24 h, 20 mg/kg IV, individual animals, BLOQ <5.1 ng/mL, read-out: Concentration (µM) from 20 mg/kg Dosing Blood): 0.007 µM
concentration at 24 h (male, CD-1, mouse, blood, intravenous, 20 mg/kg, Blood, 24 h, 20 mg/kg IV, mean, read-out: Concentration (µM) from 20 mg/kg Dosing Blood): 0.007 µM
Vd (male, CD-1, mouse, blood, iv, CD-1 mice IV, dose = c0): 20 to 23 L/kg
concentration at 0.083 h (male, CD-1, mouse, in vivo, 1 mg/kg, Blood, 0.083 h, 1 mg/kg IV, individual animals, read-out: Concentration (µM) from 1 mg/kg Dosing Blood): 0.338 µM
concentration at 0.083 h (male, CD-1, mouse, in vivo, 1 mg/kg, Blood, 0.083 h, 1 mg/kg IV, mean, read-out: Concentration (µM) from 1 mg/kg Dosing Blood): 0.365 µM
concentration at 4 h (male, CD-1, mouse, in vivo, 1 mg/kg, Blood, 4 h, 1 mg/kg IV, individual animals, BLOQ <5.1 ng/mL, read-out: Concentration (µM) from 1 mg/kg Dosing Blood): 0.005 µM
